SMILES strings stand for the structures.

This passage reports IC50 results from BindingDB's records for doi:10.1021/jm058208o (Universidad Central De Venezuela, 2005).

For this experiment, the target named is Falcipain-2 (Plasmodium falciparum, UniProt Q9NAW2). The experiment can be described thus: Falcipain Enzyme Inhibition Assay. Conditions: pH 5.5; 22 °C. Here is the method: The substrate peptide terminating in AMC is processed by falcipain-2 with or without inhibitors, and the accumulation of AMC was monitored in a Labsystems Fluoroskan Ascent spectrofluorometer. IC50 values were determined from plots of percent activity over concentration using GraphPad Prism software.
Falcipain-2, sequence (Q9NAW2 whole entry): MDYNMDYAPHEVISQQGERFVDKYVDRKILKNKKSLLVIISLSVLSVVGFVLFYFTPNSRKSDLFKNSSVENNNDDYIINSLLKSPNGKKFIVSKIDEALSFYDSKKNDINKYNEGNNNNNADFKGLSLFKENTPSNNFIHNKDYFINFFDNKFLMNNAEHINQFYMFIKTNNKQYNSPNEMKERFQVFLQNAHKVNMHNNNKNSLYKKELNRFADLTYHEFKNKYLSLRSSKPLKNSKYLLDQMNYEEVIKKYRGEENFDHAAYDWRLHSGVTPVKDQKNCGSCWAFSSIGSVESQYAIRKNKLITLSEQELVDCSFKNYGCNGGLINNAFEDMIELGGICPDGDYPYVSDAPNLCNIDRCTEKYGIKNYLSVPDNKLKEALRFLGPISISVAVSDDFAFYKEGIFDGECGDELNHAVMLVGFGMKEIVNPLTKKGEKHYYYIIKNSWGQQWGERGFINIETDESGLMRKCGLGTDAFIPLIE
The IC50 is the concentration at which inhibition is half-maximal. For the compound `COc1ccc(NC(=O)Nc2ccc(C(=O)/C=C/c3cccnc3)cc2)cc1` [3-(4-methoxyphenyl)-1-{4-[(2E)-3-(pyridin-3-yl)prop-2-enoyl]phenyl}urea], 12.5 µM corresponded to half-maximal inhibition (IC50).
The result for `CC(C)C[C@H](NC(=O)[C@@H]1O[C@H]1C(=O)O)C(=O)NCCCCN=C(N)N` [L-trans-3-Carboxyoxiran-2-carbonyl-L-leucylagmatine] reads 0.058 µM; that for `O=C(Nc1ccc(Cl)cc1)Nc1ccc(C(=O)/C=C/c2cccnc2)cc1` [3-(4-chlorophenyl)-1-{4-[(2E)-3-(pyridin-3-yl)prop-2-enoyl]phenyl}urea], 3.4 µM.
